The values that follow come from patent US20040161426A1, “Use of IL-6 antagonists in combination with steroids to enhance apoptosis” (priority 2003, published 2004).

One assay concerns RPMI 8226 cells. As to the kind of experiment: Dexamethasone-induced apoptosis, Tunel assay with flow cytometry. The format is cell-based, human. To be noted: for % Apoptosis Mean ± SEM: 48 h; for level of apoptosis (cells undergoing apoptosis): representative experiment. As to the method: The cell line RPMI 8226, a human multiple myeloma cell line, was purchased from ATCC (Rockville, Md.). Cells were grown and maintained according to ATCC instructions in complete RPMI medium containing 10% FBS, 1% NEAA, 1% L-glutamine and 1% sodium pyruvate.
Chimeric CLB8 (cCLB8) (Centocor, Malvern, Pa.) was used at three different concentrations in the assay. Another a chimeric human-mouse IgG, c171A, also developed at Centocor was used as a negative control antibody.
[…] After the incubation, cells were harvested and the Tunel assay (Tdt-mediated dUTP-FITC nick end labeling) as disclosed in Gavrieli et al., “Identification of Programmed Cell Death in situ Via Specific Labelling of Nuclear DNA Fragmentation”, […] 119:493-501, 1992 was used to measure apoptosis with minor modifications. Briefly, after the 48-hour incubation described above, approximately 10^6 cells were harvested, washed twice, and fixed with 1% paraformaldehyde for 15 minutes. After washing, the cells were permeabilized with 0.1% Triton (Sigma, St. Louis, Mo.) for 5 minutes and washed twice. The labeling reaction was performed in a heating block at 37° C. for 1 hour with 0.3 nM FITC-12-dUTP (Boehringer Mannheim, Indianapolis, Ind.), 2.5 mM CoCI2, 12.5 U Tdt, and 5 microL of 5×Tdt Buffer (Boehringer Mannheim) in a total volume of 50 microL. Cells were analyzed by flow cytometry.
After completing the Tunel assay, cells were washed twice and analyzed on a FACS Calibur flow cytometer (Becton Dickinson Immunocytometry Systems, San Jose, Calif.) equipped with a 15-mW air-cooled 488-nm argon laser. Gating to exclude debris was based upon diminished forward scatter (FSC) and side scatter (SSC). A minimum of 10,000 events was collected per sample and all analyses were performed with CELLQuest software (Becton Dickinson Immunocytometry Systems, San Jose, Calif.).
On the technique in general: A flow cytometer gives signals particle by particle.

The target of a further assay is T1, IL-6 (Homo sapiens, UniProt P05231).
T1 construct: host or cells: patients (endogenous IL-6)
To be noted: multiple myeloma patients after cCLB8 administration; cited from earlier work.

T1 sequence (P05231 30-212): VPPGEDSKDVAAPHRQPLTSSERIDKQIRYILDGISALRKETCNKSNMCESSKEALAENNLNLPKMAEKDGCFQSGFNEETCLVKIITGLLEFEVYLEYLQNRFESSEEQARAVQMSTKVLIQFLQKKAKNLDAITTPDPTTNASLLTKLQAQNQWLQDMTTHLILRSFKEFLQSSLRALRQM

Turning to `C[C@@H]1C[C@H]2[C@@H]3CCC4=CC(=O)C=C[C@]4(C)[C@@]3(F)[C@@H](O)C[C@]2(C)[C@@]1(O)C(=O)CO` [Dexamethasone, reference compound], the “% Apoptosis Mean ± SEM” value in the assay on RPMI 8226 cells (RPMI 8226 cells, DEX 10-6 alone) was “% 46 ± 4”; in the assay with RPMI 8226 cells (RPMI 8226 cells, DEX + IL-6 100 pg) it was “% 27 ± 9”. Further, the “level of apoptosis (cells undergoing apoptosis)” value is listed as 45% in the assay with RPMI 8226 cells (FIG. 1A, dexamethasone 1 microM, 48 hrs) and 20% with RPMI 8226 cells (FIG. 1B, dexamethasone in the presence of IL-6).
With “IL-6: 22-27 kDa secreted glycoprotein cytokine interleukin 6 [reference compound]”, the “IL-6 concentration inhibiting dexamethasone-induced apoptosis” value in the assay on RPMI 8226 cells (RPMI 8226 cells, dexamethasone 1 microM) is listed as “higher than 100 ng/mL”.
Consider “cCLB8: chimerized form of the murine anti-IL-6 monoclonal antibody CLB-6/8 (Centocor)”, for which, in the assay with IL-6, the “circulating levels of sIL6R and sgp130” value is listed as “remained unchanged”; the “serum IL-6 activity” value was “total blockage of serum IL-6 activity”. In addition, the “% Apoptosis Mean ± SEM” value in the assay with RPMI 8226 cells (RPMI 8226 cells, DEX + IL-6 + CNTO 328 100 ng) was “% 45 ± 11”. In addition, the “% Apoptosis Mean ± SEM” value with RPMI 8226 cells (RPMI 8226 cells, DEX + IL-6 + CNTO 328 1 ug) is reported as “% 54 ± 2.5”. Moreover, in the assay with RPMI 8226 cells (RPMI 8226 cells, P<0.02), the “neutralization of the inhibitory effect of IL-6 on dexamethasone-induced apoptosis” value is on record as “neutralized the inhibitory effect of IL-6 on dexamethasone-induced apoptosis in a dose dependent manner”. Also, in the assay with RPMI 8226 cells (combination of dexamethasone and cCLB8), the “promotion of cellular apoptosis, combination versus single agents” value was “superior to treatment with either agent alone”. For the same compound, in the assay on RPMI 8226 cells (FIG. 1C, dexamethasone in the presence of both IL-6 and cCLB8), the “level of apoptosis (cells undergoing apoptosis)” value was determined as 60%.
